Source: US7960377B2 (priority 2008, dated 2011)

Experiments:
human CB1 receptor = human CB1 receptor (Homo sapiens, UniProt P21554); test: cell-based
rat CB2 receptor = biological target: T1, rat CB2 receptor (Rattus norvegicus, UniProt Q9QZN9); test: cell-based; type: cell-based
T1 sequence (Q9QZN9 1-360): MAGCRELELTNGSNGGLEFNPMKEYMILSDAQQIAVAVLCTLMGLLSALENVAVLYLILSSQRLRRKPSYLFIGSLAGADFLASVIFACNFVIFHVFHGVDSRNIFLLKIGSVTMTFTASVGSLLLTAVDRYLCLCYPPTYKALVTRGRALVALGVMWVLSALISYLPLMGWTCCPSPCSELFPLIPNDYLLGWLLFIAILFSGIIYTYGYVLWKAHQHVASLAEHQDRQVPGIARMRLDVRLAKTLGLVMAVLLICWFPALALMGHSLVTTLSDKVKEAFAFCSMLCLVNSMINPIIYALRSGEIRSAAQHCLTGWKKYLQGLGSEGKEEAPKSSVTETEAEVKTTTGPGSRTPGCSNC

human CB1 receptor, sequence (P21554 whole entry): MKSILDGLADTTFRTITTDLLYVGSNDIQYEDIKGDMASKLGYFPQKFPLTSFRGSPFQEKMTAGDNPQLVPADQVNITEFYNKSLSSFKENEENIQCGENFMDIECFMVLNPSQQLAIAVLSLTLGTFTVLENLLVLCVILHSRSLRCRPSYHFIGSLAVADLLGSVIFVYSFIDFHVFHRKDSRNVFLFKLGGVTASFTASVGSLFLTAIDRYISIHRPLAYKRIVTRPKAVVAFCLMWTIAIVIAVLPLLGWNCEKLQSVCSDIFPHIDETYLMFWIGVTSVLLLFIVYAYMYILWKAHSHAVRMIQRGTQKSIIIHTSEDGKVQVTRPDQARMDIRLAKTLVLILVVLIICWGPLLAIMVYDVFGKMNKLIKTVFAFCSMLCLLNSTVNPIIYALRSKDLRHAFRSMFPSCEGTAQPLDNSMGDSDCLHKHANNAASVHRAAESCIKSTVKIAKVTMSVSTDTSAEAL

Compound	EC50 (human CB1 receptor)	EC50 (rat CB2 receptor)	inverse agonist mark, human CB1 receptor (human CB1 receptor; asterisk at the compound number)
COCC1CCCCN1C(=O)c1cnc2c(c1)N(S(=O)(=O)c1ccc(C(F)(F)F)cc1)CCO2 (racemic) [Example 74, +/− (2-(methoxymethyl)-piperidin-1-yl)(1-(4-(trifluoromethyl)phenylsulf-onyl)-2,3-dihydro-1H-pyrido[2,3-b][1,4]oxazin-7-yl)methanone]	> 30000 nM	≤ 30 nM	
COCCCNC(=O)c1cnc2c(c1)N(S(=O)(=O)c1ccc(F)cc1)CCO2 [Example 12]	> 30000 nM	≤ 30 nM	
CC(C)(C)NC(=O)c1cnc2c(c1)N(S(=O)(=O)c1cccc(F)c1)CCO2 [Example 20, N-tert-butyl-1-(3-fluorophenylsulfonyl)-2,3-dihydro-1H-pyrido[2,3-b][1,4]oxazine-7-carboxamide]	> 30000 nM	≤ 30 nM	
O=C(NC1CCCC1)c1cnc2c(c1)N(S(=O)(=O)c1cccc(F)c1)CCO2 [Example 21, N-cyclopentyl-1-(3-fluorophenylsulfonyl)-2,3-dihydro-1H-pyrido[2,3-b][1,4]oxazine-7-carboxamide]	> 30000 nM	≤ 30 nM	
CC(C)(C)NC(=O)c1cnc2c(c1)N(S(=O)(=O)c1ccccc1F)CCO2 [Example 22, N-tert-butyl-1-(2-fluorophenylsulfonyl)-2,3-dihydro-1H-pyrido[2,3-b][1,4]oxazine-7-carboxamide]	> 30000 nM	≤ 30 nM	
O=C(NC1CCCC1)c1cnc2c(c1)N(S(=O)(=O)c1ccccc1F)CCO2 [Example 23, N-cyclopentyl-1-(2-fluorophenylsulfonyl)-2,3-dihydro-1H-pyrido[2,3-b][1,4]oxazine-7-carboxamide]	> 30000 nM	≤ 30 nM	
CC(C)(C)NC(=O)c1cnc2c(c1)N(S(=O)(=O)c1ccc(C(F)(F)F)cc1)CCO2 [Example 26, N-tert-butyl-1-(4-(trifluoromethyl)phenylsulf-onyl)-2,3-dihydro-1H-pyrido[2,3-b][1,4]oxazine-7-carboxamide]	> 30000 nM	≤ 30 nM	
O=C(NC1CCCC1)c1cnc2c(c1)N(S(=O)(=O)c1ccc(C(F)(F)F)cc1)CCO2 [Example 27, N-cyclopentyl-1-(4-(trifluoromethyl)phenylsulf-onyl)-2,3-dihydro-1H-pyrido[2,3-b][1,4]oxazine-7-carboxamide]	> 30000 nM	≤ 30 nM	
O=C(NCC1CC1)c1cnc2c(c1)N(S(=O)(=O)c1ccc(Cl)cc1)CCO2 [Example 33, 1-(4-chlorophenyl-sulfonyl)-N-(cyclopropyl-methyl)-2,3-dihydro-1H-pyrido[2,3-b][1,4]oxazine-7-carboxamide]	> 30000 nM	≤ 30 nM	
CN(C(=O)c1cnc2c(c1)N(S(=O)(=O)c1ccc(C(F)(F)F)cc1)CCO2)C(C)(C)C [Example 40, N-tert-butyl-N-methyl-1-(4-(trifluoromethyl)-phenylsulfonyl)-2,3-dihydro-1H-pyrido[2,3-b][1,4]oxazine-7-carboxamide]	> 30000 nM	≤ 30 nM	
COCCN(C(=O)c1cnc2c(c1)N(S(=O)(=O)c1ccc(C(F)(F)F)cc1)CCO2)C(C)(C)C [Example 43, N-tert-butyl-N-(2-methoxyethyl)-1-(4-(trifluoromethyl)phenylsulf-onyl)-2,3-dihydro-1H-pyrido[2,3-b][1,4]oxazine-7-carboxamide]		≤ 30 nM	11, 24, 25, 42, 43*, 67, 117*, 121, 124, 131, 132, 148, 150, 151,
CC(C)(CN1CCOCC1)NC(=O)c1cnc2c(c1)N(S(=O)(=O)c1ccc(C(F)(F)F)cc1)CCO2 [Example 46, N-(2-methyl-1-morpholinopropan-2-yl)-1-(4-(trifluoromethyl)phenylsulfonyl)-2,3-dihydro-1H-pyrido[2,3-b][1,4]oxazine-7-carboxamide]	> 30000 nM	≤ 30 nM	
CC(C)(C)NC(=O)c1cnc2c(c1)N(S(=O)(=O)c1ccc(OC(F)(F)F)cc1)CCO2 [Example 48, N-tert-butyl-1-(4-(trifluoromethoxy)phenyl-sulfonyl)-2,3-dihydro-1H-pyrido[2,3-b][1,4]oxazine-7-carboxamide]	> 30000 nM	≤ 30 nM	
Cc1ccc(S(=O)(=O)N2CCOc3ncc(C(=O)NC(C)(C)C)cc32)s1 [Example 59, N-tert-butyl-1-(5-methylthiophen-2-ylsulfonyl)-2,3-dihydro-1H-pyrido[2,3-b][1,4]oxazine-7-carboxamide]	> 30000 nM	≤ 30 nM	
CCC(CO)(CO)NC(=O)c1cnc2c(c1)N(S(=O)(=O)c1ccc(C(F)(F)F)cc1)CCO2 [Example 64, N-(1-hydroxy-2-(hydroxymethyl)butan-2-yl)-1-(4-(trifluoromethyl)phenylsulf-onyl)-2,3-dihydro-1H-pyrido[2,3-b][1,4]oxazine-7-carboxamide]	> 30000 nM	≤ 30 nM	
CC(C)(C)CC(C)(C)NC(=O)c1cnc2c(c1)N(S(=O)(=O)c1ccc(C(F)(F)F)cc1)CCO2 [Example 65, 1-(4-(trifluoromethyl)-phenylsulfonyl)-N-(2,4,4-trimethylpentan-2-yl)-2,3-dihydro-1H-pyrido[2,3-b][1,4]oxazine-7-carboxamide]	> 30000 nM	≤ 30 nM	

Compound	EC50 (human CB1 receptor)	EC50 (rat CB2 receptor)	inverse agonist mark, human CB1 receptor (human CB1 receptor; asterisk at the compound number)
COC(=O)[C@@H]1CCCCN1C(=O)c1cnc2c(c1)N(S(=O)(=O)c1ccc(C(F)(F)F)cc1)CCO2 [Example 68, (S)-methyl 1-(1-(4-(trifluoromethyl)phenylsulf-onyl)-2,3-dihydro-1H-pyrido[2,3-b][1,4]oxazine-7-carbonyl)piperidine-2-carboxylate]	> 30000 nM	≤ 30 nM	
CCOC(=O)C1(NC(=O)c2cnc3c(c2)N(S(=O)(=O)c2ccc(C(F)(F)F)cc2)CCO3)CC1 [Example 70, ethyl 1-(1-(4-(trifluoromethyl)phenylsulf-onyl)-2,3-dihydro-1H-pyrido[2,3-b][1,4]oxazine-7-carboxamido)-cyclopropanecarboxylate]	> 30000 nM	≤ 30 nM	
CCOC(=O)C1(NC(=O)c2cnc3c(c2)N(S(=O)(=O)c2ccc(C(F)(F)F)cc2)CCO3)CCC1 [Example 71, ethyl 1-(1-(4-(trifluoro-methyl)phenylsulfonyl)-2,3-dihydro-1H-pyrido-[2,3-b][1,4]oxazine-7-carboxamido)cyclo-butanecarboxylate]	> 30000 nM	≤ 30 nM	
CC(C)(C)NC(=O)c1cnc2c(c1)N(S(=O)(=O)c1cccc(C(F)(F)F)c1)CCO2 [Example 83, N-tert-butyl-1-(3-(trifluoromethyl)phenylsulf-onyl)-2,3-dihydro-1H-pyrido[2,3-b][1,4]oxazine-7-carboxamide]	> 30000 nM	≤ 30 nM	
CC(C)(C)NC(=O)c1cnc2c(c1)N(S(=O)(=O)c1cccc(Cl)c1)CCO2 [Example 89, N-tert-butyl-1-(3-chlorophenylsulfonyl)-2,3-dihydro-1H-pyrido[2,3-b][1,4]oxazine-7-carboxamide]	> 30000 nM	≤ 30 nM	
CC(C)(C)NC(=O)c1cnc2c(c1)N(S(=O)(=O)c1ccsc1)CCO2 [Example 90, N-tert-butyl-1-(thiophen-3-ylsulfonyl)-2,3-dihydro-1H-pyrido[2,3-b][1,4]oxazine-7-carboxamide]	> 30000 nM	≤ 30 nM	
Cc1csc(S(=O)(=O)N2CCOc3ncc(C(=O)NC(C)(C)C)cc32)c1 [Example 92, N-tert-butyl-1-(4-methylthiophen-2-ylsulfonyl)-2,3-dihydro-1H-pyrido[2,3-b][1,4]oxazine-7-carboxamide]	> 30000 nM	≤ 30 nM	
CC(C)(CO)NC(=O)c1cnc2c(c1)N(S(=O)(=O)c1ccc(Cl)c(Cl)c1)CCO2 [Example 95, 1-(3,4-dichlorophenylsulfonyl)-N-(1-hydroxy-2-methylpropan-2-yl)-2,3-dihydro-1H-pyrido[2,3-b][1,4]oxazine-7-carboxamide]	> 30000 nM	≤ 30 nM	
CC(C)(CO)NC(=O)c1cnc2c(c1)N(S(=O)(=O)c1ccc(Cl)cc1F)CCO2 [Example 96, 1-(4-chloro-2-fluorophenylsulfonyl)-N-(1-hydroxy-2-methylpropan-2-yl)-2,3-dihydro-1H-pyrido[2,3-b][1,4]oxazine-7-carboxamide]	> 30000 nM	≤ 30 nM	
CC(C)(O)CNC(=O)c1cnc2c(c1)N(S(=O)(=O)c1ccc(Cl)cc1F)CCO2 [Example 97, 1-(4-chloro-2-fluorophenylsulfonyl)-N-(2-hydroxy-2-methylpropyl)-2,3-dihydro-1H-pyrido[2,3-b][1,4]oxazine-7-carboxamide]	> 30000 nM	≤ 30 nM	
CC(C)(O)CNC(=O)c1cnc2c(c1)N(S(=O)(=O)c1ccc(Cl)c(Cl)c1)CCO2 [Example 98]	> 30000 nM	≤ 30 nM	
CC(C)(CO)NC(=O)c1cnc2c(c1)N(S(=O)(=O)c1ccc(F)c(Cl)c1)CCO2 [Example 99, 1-(3-chloro-4-fluorophenylsulfonyl)-N-(1-hydroxy-2-methylpropan-2-yl)-2,3-dihydro-1H-pyrido[2,3-b][1,4]oxazine-7-carboxamide]	> 30000 nM	≤ 30 nM	
COCCCNC(=O)c1noc(-c2cnc3c(c2)N(S(=O)(=O)c2ccc(F)cc2)CCO3)n1 [Example 216, 5-(1-(4-fluorophenylsulfonyl)-2,3-dihydro-1H-pyrido[2,3-b] [1,4]oxazin-7-yl)-N-(3-methoxypropyl)-1,2,4-oxadiazole-3-carboxamide]		≤ 30 nM	
O=S(=O)(c1ccc(F)cc1)N1CCOc2ncc(-c3nc4ncccc4o3)cc21 [Example 217]		≤ 30 nM	
O=S(=O)(c1ccc(C(F)(F)F)cc1)N1CCOc2ncc(-c3ncc(-c4ccccc4)o3)cc21 [Example 227, 7-(5-phenyloxazol-2-yl)-1-(4-(trifluoromethyl)phenyl-sulfonyl)-2,3-dihydro-1H-pyrido[2,3-b][1,4]oxazine]		≤ 30 nM	
